# Data published in patent US6410575B1, “Viral treatment” (The Procter & Gamble Company, priority 1999, dated 2002).
# Tests used:
# HIV-1 cell line, CEMSKI = assay: Long term in vitro study, CEMSKI; format: cell-based
# Protocol: (§1) Toxicity quantification involves the XTT-based evaluation. Assays were designed to characterize the long term effects of the compounds on virus production and to characterize the longer term effects of the compounds on virus production from chronically HIV infected cells.
# (§2) CEM-SS cells chronically infected with HIV isolate, for example SKI (CEM-SKI) are cultured in RPMI1640 tissue culture medium supplemented with 10% fetal bovine serum and antibiotics. […] CEM-SKI or other infected cells with no added drug are used as the control cells.
# (§3) Cells are allowed to grow to a density of approximately 1×10^6 cells/ml and are then passaged at a 1:10 dilution. […] The drug concentration in the flask is then increased two-fold and the cells maintained as above.
# (§4) The cell populations contain integrated copies of the HIV genome and constitutively produce HIV at relatively high levels or are latently infected and only produce virus after stimulation with phorbol esters, tumor necrosis factor or IL6(U1 and ACH2). Reductions in virus products were observed when quantifying supernatant reverse transcriptase activity.
# The results with CEMSKI cells was reported at weekly intervals.
# The CEMSKI cell like is a viral strain of the CEMSS cell line.
# BVDV = BVDV testing in vitro; format: cell-based, bovine diarrhea virus
# Text: DMSO had no effect, as expected.
# BVDV is a bovine diarrhea virus and is a well known surrogate virus for hepatitis C which cannot be cultured in vitro.
# HIV-1 cell line, CEMIIIB = assay: Long term in vitro study, CEMIIIB; format: cell-based
# Protocol: as §1, §2, §3, §4
# The results with CEMIIIB cells was reported at weekly intervals.
# The CEMIIIB is a viral strain of the CEMSS cell line.
structure (smiles),measurement,setting,value
NC(=S)Nc1nsc(-c2ccccc2)n1,virus production (supernatant reverse transcriptase activity),"HIV-1 cell line, CEMSKI; 15 μg/ml, day 18",10389
same,virus production (supernatant reverse transcriptase activity),"HIV-1 cell line, CEMSKI; 15 μg/ml, day 25",7816
same,virus production (supernatant reverse transcriptase activity),"HIV-1 cell line, CEMSKI; 15 μg/ml, day 32",6672
same,virus production (supernatant reverse transcriptase activity),"HIV-1 cell line, CEMSKI; 15 μg/ml, day 39",7087
same,virus production (supernatant reverse transcriptase activity),"HIV-1 cell line, CEMSKI; 15 μg/ml, day 46",6457
same,virus production (supernatant reverse transcriptase activity),"HIV-1 cell line, CEMSKI; 15 μg/ml, day 53",6544
same,virus production (supernatant reverse transcriptase activity),"HIV-1 cell line, CEMSKI; 30 μg/ml, day 4",6626
same,virus production (supernatant reverse transcriptase activity),"HIV-1 cell line, CEMSKI; 30 μg/ml, day 11",6582
same,virus production (supernatant reverse transcriptase activity),"HIV-1 cell line, CEMSKI; 30 μg/ml, day 18",7494
same,virus production (supernatant reverse transcriptase activity),"HIV-1 cell line, CEMSKI; 30 μg/ml, day 25",4421
same,virus production (supernatant reverse transcriptase activity),"HIV-1 cell line, CEMSKI; 30 μg/ml, day 32",4056
same,virus production (supernatant reverse transcriptase activity),"HIV-1 cell line, CEMSKI; 30 μg/ml, day 39",2118
same,virus production (supernatant reverse transcriptase activity),"HIV-1 cell line, CEMSKI; 30 μg/ml, day 46",4117
same,virus production (supernatant reverse transcriptase activity),"HIV-1 cell line, CEMSKI; 30 μg/ml, day 53",4779
same,virus production (supernatant reverse transcriptase activity),"HIV-1 cell line, CEMSKI; repeated test, 7 μg/ml, day 4",6224
same,virus production (supernatant reverse transcriptase activity),"HIV-1 cell line, CEMSKI; repeated test, 7 μg/ml, day 11",6658
same,virus production (supernatant reverse transcriptase activity),"HIV-1 cell line, CEMSKI; repeated test, 7 μg/ml, day 18",7207
same,virus production (supernatant reverse transcriptase activity),"HIV-1 cell line, CEMSKI; repeated test, 7 μg/ml, day 25",5725
same,virus production (supernatant reverse transcriptase activity),"HIV-1 cell line, CEMSKI; repeated test, 7 μg/ml, day 32",3161
same,virus production (supernatant reverse transcriptase activity),"HIV-1 cell line, CEMSKI; repeated test, 7 μg/ml, day 39",9602
same,virus production (supernatant reverse transcriptase activity),"HIV-1 cell line, CEMSKI; repeated test, 7 μg/ml, day 46",13984
same,virus production (supernatant reverse transcriptase activity),"HIV-1 cell line, CEMSKI; repeated test, 7 μg/ml, day 53",11578
same,virus production (supernatant reverse transcriptase activity),"HIV-1 cell line, CEMSKI; repeated test, 15 μg/ml, day 4",5685
same,virus production (supernatant reverse transcriptase activity),"HIV-1 cell line, CEMSKI; repeated test, 15 μg/ml, day 11",5733
same,virus production (supernatant reverse transcriptase activity),"HIV-1 cell line, CEMSKI; repeated test, 15 μg/ml, day 18",6236
same,virus production (supernatant reverse transcriptase activity),"HIV-1 cell line, CEMSKI; repeated test, 15 μg/ml, day 25",3752
same,virus production (supernatant reverse transcriptase activity),"HIV-1 cell line, CEMSKI; repeated test, 15 μg/ml, day 32",2451
same,virus production (supernatant reverse transcriptase activity),"HIV-1 cell line, CEMSKI; repeated test, 15 μg/ml, day 39",5526
same,virus production (supernatant reverse transcriptase activity),"HIV-1 cell line, CEMSKI; repeated test, 15 μg/ml, day 46",12397
same,virus production (supernatant reverse transcriptase activity),"HIV-1 cell line, CEMSKI; repeated test, 15 μg/ml, day 53",9662
same,virus production (supernatant reverse transcriptase activity),"HIV-1 cell line, CEMSKI; repeated test, 30 μg/ml, day 4",4789
same,virus production (supernatant reverse transcriptase activity),"HIV-1 cell line, CEMSKI; repeated test, 30 μg/ml, day 11",5200
same,virus production (supernatant reverse transcriptase activity),"HIV-1 cell line, CEMSKI; repeated test, 30 μg/ml, day 18",4821
same,virus production (supernatant reverse transcriptase activity),"HIV-1 cell line, CEMSKI; repeated test, 30 μg/ml, day 25",2418
same,virus production (supernatant reverse transcriptase activity),"HIV-1 cell line, CEMSKI; repeated test, 30 μg/ml, day 32",1651
same,virus production (supernatant reverse transcriptase activity),"HIV-1 cell line, CEMSKI; repeated test, 30 μg/ml, day 39",3386
same,virus production (supernatant reverse transcriptase activity),"HIV-1 cell line, CEMSKI; repeated test, 30 μg/ml, day 46",9353
same,virus production (supernatant reverse transcriptase activity),"HIV-1 cell line, CEMSKI; repeated test, 30 μg/ml, day 53",6466
same,"Antiviral Index (AI), TC50/IC50",BVDV; first test,greater than 4000
same,"Antiviral Index (AI), TC50/IC50",BVDV; second screening test,1000.4
same,virus production (supernatant reverse transcriptase activity),"HIV-1 cell line, CEMIIIB; 7 μg/ml, day 4",4849
same,virus production (supernatant reverse transcriptase activity),"HIV-1 cell line, CEMIIIB; 7 μg/ml, day 11",6658
same,virus production (supernatant reverse transcriptase activity),"HIV-1 cell line, CEMIIIB; 7 μg/ml, day 18",7078
same,virus production (supernatant reverse transcriptase activity),"HIV-1 cell line, CEMIIIB; 7 μg/ml, day 25",5221
same,virus production (supernatant reverse transcriptase activity),"HIV-1 cell line, CEMIIIB; 7 μg/ml, day 32",5329
same,virus production (supernatant reverse transcriptase activity),"HIV-1 cell line, CEMIIIB; 7 μg/ml, day 39",7349
same,virus production (supernatant reverse transcriptase activity),"HIV-1 cell line, CEMIIIB; 7 μg/ml, day 46",11262
same,virus production (supernatant reverse transcriptase activity),"HIV-1 cell line, CEMIIIB; 7 μg/ml, day 53",11286
same,virus production (supernatant reverse transcriptase activity),"HIV-1 cell line, CEMIIIB; 15 μg/ml, day 4",5078
same,virus production (supernatant reverse transcriptase activity),"HIV-1 cell line, CEMIIIB; 15 μg/ml, day 11",5733
same,virus production (supernatant reverse transcriptase activity),"HIV-1 cell line, CEMIIIB; 15 μg/ml, day 18",6057
same,virus production (supernatant reverse transcriptase activity),"HIV-1 cell line, CEMIIIB; 15 μg/ml, day 25",4980
same,virus production (supernatant reverse transcriptase activity),"HIV-1 cell line, CEMIIIB; 15 μg/ml, day 32",4273
same,virus production (supernatant reverse transcriptase activity),"HIV-1 cell line, CEMIIIB; 15 μg/ml, day 39",6329
same,virus production (supernatant reverse transcriptase activity),"HIV-1 cell line, CEMIIIB; 15 μg/ml, day 46",10361
same,virus production (supernatant reverse transcriptase activity),"HIV-1 cell line, CEMIIIB; 15 μg/ml, day 53",9844
same,virus production (supernatant reverse transcriptase activity),"HIV-1 cell line, CEMIIIB; 30 μg/ml, day 4",5251
same,virus production (supernatant reverse transcriptase activity),"HIV-1 cell line, CEMIIIB; 30 μg/ml, day 11",6200
same,virus production (supernatant reverse transcriptase activity),"HIV-1 cell line, CEMIIIB; 30 μg/ml, day 18",6952
same,virus production (supernatant reverse transcriptase activity),"HIV-1 cell line, CEMIIIB; 30 μg/ml, day 25",4110
same,virus production (supernatant reverse transcriptase activity),"HIV-1 cell line, CEMIIIB; 30 μg/ml, day 32",3337
same,virus production (supernatant reverse transcriptase activity),"HIV-1 cell line, CEMIIIB; 30 μg/ml, day 39",4233
same,virus production (supernatant reverse transcriptase activity),"HIV-1 cell line, CEMIIIB; 30 μg/ml, day 46",9238
same,virus production (supernatant reverse transcriptase activity),"HIV-1 cell line, CEMIIIB; 30 μg/ml, day 53",3527
